Experimental findings from PubChem BioAssay (NCI) are described below.

Each structure is given as a SMILES string.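 Grown in 96-well plates, cells were treated for 48 hours with each compound at five concentrations. Insufficient inhibition: endpoint recorded as highest concentration tested. GI50: concentration for 50% inhibition of growth. At the TGI there is no net growth.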 Where only a bound is given, the exact number is not on record here.

Test systems include COLO 205 colon; RPMI-8226 leukemia; NCI-H226 lung; IGROV1 ovarian; SW-620 colon; SK-MEL-2 melanoma; HCT-116 colon; SK-MEL-5 melanoma.
Holding throughout (test): NCI anticancer screen, dose series, 48 h

Consider `COc1ccc(C2=NNC(=O)OC2c2ccccc2)cc1` (centres undefined), for which the TGI in the test with COLO 205 colon, with RPMI-8226 leukemia, with NCI-H226 lung, with IGROV1 ovarian, with SW-620 colon and in the test with SK-MEL-2 melanoma was more than 100 µM throughout. This compound also yielded a TGI in the test on HCT-116 colon of more than 100 µM.

As to `CN1C2(c3ccccc3)c3c(-c4ccccc4)sc(-c4ccccc4)c3C1(c1ccccc1)C1C(=O)N(c3ccccc3)C(=O)C12` (centres undefined), the TGI with COLO 205 colon, in the test with RPMI-8226 leukemia, in the test with NCI-H226 lung, with SK-MEL-5 melanoma, in the test on IGROV1 ovarian and with SW-620 colon was more than 100 µM throughout. In addition, the TGI in the test with HCT-116 colon was more than 100 µM.

As to `Cc1cc(N(CCC#N)S(C)(=O)=O)ccc1C=O`, the TGI with COLO 205 colon, in the test on RPMI-8226 leukemia, with NCI-H226 lung, in the test with SK-MEL-5 melanoma, in the test on IGROV1 ovarian and with SW-620 colon was more than 100 µM each time. Also, the TGI with SK-MEL-2 melanoma and with HCT-116 colon was more than 100 µM each time.

Turning to `Cn1c2c(c3ccccc31)C1CCCCC1C1C(=O)NC(=O)C21` (centres undefined), the TGI with COLO 205 colon, in the test on RPMI-8226 leukemia, with NCI-H226 lung, in the test on SK-MEL-5 melanoma, in the test on IGROV1 ovarian and in the test with SW-620 colon was more than 100 µM in each case.

Take `COc1ccc2oc3c4c2c1CCC4CCC3=O` (centres undefined): the TGI in the test on COLO 205 colon, in the test on RPMI-8226 leukemia, with SK-MEL-5 melanoma, with IGROV1 ovarian, with SW-620 colon and in the test with SK-MEL-2 melanoma was more than 100 µM in each case.

With `CC(C)(C)NN=C1C(C)(C)C(=NNC(C)(C)C)C1(C)C`, the TGI in the test with COLO 205 colon, in the test on RPMI-8226 leukemia, with NCI-H226 lung, with SK-MEL-5 melanoma, in the test with IGROV1 ovarian and in the test on SW-620 colon was more than 100 µM in each case. In addition, the TGI with HCT-116 colon was more than 100 µM.

In the case of `N/N=C1\C(=O)N(C2CCCCC2)C(=O)C1C(=O)NC1CCCCC1` (centres undefined), the TGI in the test with COLO 205 colon, with RPMI-8226 leukemia, in the test with NCI-H226 lung, with SK-MEL-5 melanoma, in the test with IGROV1 ovarian and in the test with SW-620 colon was more than 100 µM in each case. Further, the TGI was 74.7 µM in the test with SK-MEL-2 melanoma and more than 100 µM with HCT-116 colon.

In the case of `Cc1ccc(-c2nc(SCC(=O)O)n[nH]2)cc1`, the TGI in the test on COLO 205 colon, in the test with RPMI-8226 leukemia, with NCI-H226 lung, in the test on SK-MEL-5 melanoma, in the test on IGROV1 ovarian and in the test on SW-620 colon was more than 100 µM each time. For the same compound, the TGI with SK-MEL-2 melanoma and in the test with HCT-116 colon was more than 100 µM throughout.

As to `CCOC(=O)C(=O)Nc1c(F)cc(F)cc1Br`, the TGI in the test on COLO 205 colon, with RPMI-8226 leukemia, in the test on NCI-H226 lung, in the test with SK-MEL-5 melanoma, in the test with IGROV1 ovarian and in the test on SW-620 colon was more than 100 µM throughout. For the same compound, the TGI in the test with SK-MEL-2 melanoma and in the test with HCT-116 colon was more than 100 µM each time.

Take `COc1ccc(/C=C2\CCCCC2=O)cc1`: the TGI in the test with COLO 205 colon, with SK-MEL-5 melanoma, in the test with IGROV1 ovarian, with SW-620 colon and in the test on HCT-116 colon was more than 100 µM each time.

For `CN(C)c1ccc(N=Cc2c([O-])ccc3ccccc23)cc1.[C-]#[O+].[C-]#[O+].[Ir]`, the GI50 in the test with COLO 205 colon is 17.5 µM; with RPMI-8226 leukemia it was 23.2 µM; in the test on NCI-H226 lung, 15.2 µM; in the test on SK-MEL-5 melanoma, 16.4 µM; with IGROV1 ovarian, 21.1 µM; in the test on SW-620 colon, 16.7 µM. Moreover, in the test on HCT-116 colon, the GI50 is 17.7 µM. For the same compound, the TGI with COLO 205 colon was 33.9 µM; in the test on RPMI-8226 leukemia, more than 100 µM; in the test on NCI-H226 lung, 33.1 µM; with SK-MEL-5 melanoma, 31.2 µM; in the test with IGROV1 ovarian, 65 µM; in the test with SW-620 colon, 32.5 µM. The TGI in the test on HCT-116 colon was 32.1 µM.

`O=S(O)CCCCCSSCCCCSSCCCCCS(=O)O`: the TGI with COLO 205 colon, in the test on RPMI-8226 leukemia, in the test with SK-MEL-5 melanoma, in the test with IGROV1 ovarian, with SW-620 colon and in the test on SK-MEL-2 melanoma was more than 100 µM each time.

`O=C(CO)CC(=O)C(=O)Nc1nc([N+](=O)[O-])cs1`: the TGI in the test on COLO 205 colon, with RPMI-8226 leukemia, with NCI-H226 lung, with SK-MEL-5 melanoma, with IGROV1 ovarian and in the test with SW-620 colon was more than 100 µM each time. Besides, the TGI in the test on SK-MEL-2 melanoma and in the test on HCT-116 colon was more than 100 µM each time.

Consider `CC1C[C@H](OC(N)=O)C(C)CC1=O` (some centres undefined), for which the TGI in the test on COLO 205 colon, with RPMI-8226 leukemia, in the test on SK-MEL-5 melanoma, with IGROV1 ovarian, in the test with SW-620 colon and in the test on SK-MEL-2 melanoma was more than 100 µM in each case. Also, the TGI in the test on HCT-116 colon was more than 100 µM.

Regarding `CCOC(=O)N1CCc2cc(OC)c(OC)c3c2C1CC3=O` (centres undefined), the TGI in the test on COLO 205 colon, in the test with RPMI-8226 leukemia, with SK-MEL-5 melanoma, with IGROV1 ovarian, with SW-620 colon and in the test with SK-MEL-2 melanoma was more than 100 µM throughout. The same compound registered a TGI with HCT-116 colon of more than 100 µM.

For `Cc1ccc(NC(=O)c2cccc([N+](=O)[O-])c2O)c([N+](=O)[O-])c1`, the TGI with COLO 205 colon is 38.6 µM; with RPMI-8226 leukemia it was more than 100 µM; with NCI-H226 lung it was 8.4 µM; with IGROV1 ovarian, 44.9 µM; in the test on SW-620 colon, 39.5 µM; with HCT-116 colon it was 30.3 µM.

Consider `CSC(C1c2ccccc2N(C)C2=NC(=O)N(C)C(=O)C21Cl)S(=O)(=O)c1ccc(C)cc1` (centres undefined), for which the TGI was more than 100 µM with COLO 205 colon; 57.8 µM in the test on RPMI-8226 leukemia; more than 100 µM in the test with NCI-H226 lung; more than 100 µM in the test with SK-MEL-5 melanoma; more than 100 µM with IGROV1 ovarian; 71.1 µM in the test on SW-620 colon. The TGI in the test with SK-MEL-2 melanoma and in the test with HCT-116 colon was more than 100 µM in each case.

As for `CC1=CC(=O)CCC2(C)C1CC[C@@H]2OC=O` (some centres undefined), the TGI in the test with COLO 205 colon, with RPMI-8226 leukemia, in the test with NCI-H226 lung, in the test on SK-MEL-5 melanoma, with IGROV1 ovarian and in the test on SW-620 colon was more than 100 µM each time. In addition, the TGI with SK-MEL-2 melanoma and with HCT-116 colon was more than 100 µM throughout.

Regarding `CC(=O)C1CC=C(C)CC1` (centres undefined), the TGI in the test with COLO 205 colon, with RPMI-8226 leukemia, with NCI-H226 lung, with SK-MEL-5 melanoma, with IGROV1 ovarian and in the test on SW-620 colon was more than 100 µM throughout. Moreover, the TGI in the test on SK-MEL-2 melanoma and in the test on HCT-116 colon was more than 100 µM in each case.

For the compound `C=C/C=C(\NC(=O)C(Cl)(Cl)Cl)[Si](C)(C)C`, the TGI in the test on COLO 205 colon, in the test with RPMI-8226 leukemia, in the test on NCI-H226 lung, in the test with SK-MEL-5 melanoma, in the test with IGROV1 ovarian and in the test with SW-620 colon was more than 100 µM in each case. Further, the TGI in the test on SK-MEL-2 melanoma and in the test with HCT-116 colon was more than 100 µM in each case.

Regarding `COC1(OC)CC2C=C(S(=O)(=O)c3ccccc3)C1N(Cc1ccccc1)C2=O` (centres undefined), the TGI was 43.4 µM in the test with COLO 205 colon; 75.9 µM with NCI-H226 lung; more than 100 µM with SK-MEL-5 melanoma; more than 100 µM in the test with IGROV1 ovarian; 76.8 µM with SW-620 colon; 30 µM in the test on HCT-116 colon.

With `COc1cc2c(cc1OC)-c1cc3cc(OC)c(OC)cc3n1CC2`, the TGI is more than 100 µM with COLO 205 colon; more than 100 µM in the test with RPMI-8226 leukemia; 73.5 µM with NCI-H226 lung; more than 100 µM in the test on IGROV1 ovarian; more than 100 µM with SW-620 colon; more than 100 µM in the test on SK-MEL-2 melanoma. In the test with HCT-116 colon, this compound registered a TGI of more than 100 µM.

Turning to `CCn1cc(/C=C/C(C)c2cn(CC)c(=O)[nH]c2=O)c(=O)[nH]c1=O` (centres undefined), the TGI in the test with COLO 205 colon, in the test on RPMI-8226 leukemia, in the test with SK-MEL-5 melanoma, in the test on IGROV1 ovarian, in the test with SW-620 colon and in the test on SK-MEL-2 melanoma was more than 100 µM each time.

Turning to `N#CC(C(=O)/C(=N\Nc1nc(=S)[nH]n1N)C(C#N)c1ccc(Cl)cc1)c1ccc(Cl)cc1` (centres undefined), the TGI in the test with COLO 205 colon, with RPMI-8226 leukemia, with NCI-H226 lung, in the test on IGROV1 ovarian, in the test on SW-620 colon and in the test on SK-MEL-2 melanoma was more than 100 µM each time. The compound also registered a TGI in the test on HCT-116 colon of more than 100 µM.

In the case of `COc1ccc(C(O)/C(=N\NC(N)=S)c2nc3ccc([N+](=O)[O-])cc3[nH]c2=O)cc1OC` (centres undefined), the TGI in the test with COLO 205 colon, in the test on RPMI-8226 leukemia, in the test with NCI-H226 lung, in the test on IGROV1 ovarian, in the test on SW-620 colon and in the test on SK-MEL-2 melanoma was more than 100 µM throughout.

`CC(=O)O/N=C/c1ncccc1OC(C)=O`: the TGI in the test with COLO 205 colon, in the test on NCI-H226 lung, in the test with SK-MEL-5 melanoma, in the test on IGROV1 ovarian, in the test on SW-620 colon and in the test with SK-MEL-2 melanoma was more than 100 µM in each case. For the same compound, in the test on HCT-116 colon, the TGI is more than 100 µM.
